Values of other authors in US11413253B2, “Nanoparticle delivery systems” (Celator Pharmaceuticals, Inc., priority 2015, dated 2022).

Settings: shown in the art

SMILES | plasma clearance of free drug
CC(=O)O[C@@]12CO[C@@H]1C[C@H](O)[C@@]1(C)C(=O)[C@H](O)C3=C(C)[C@@H](OC(=O)[C@H](O)[C@@H](NC(=O)OC(C)(C)C)c4ccccc4)C[C@@](O)([C@@H](OC(=O)c4ccccc4)[C@H]21)C3(C)C [free docetaxel, docetaxel] | cleared quite rapidly
CCNC(=O)c1noc(-c2cc(C(C)C)c(O)cc2O)c1-c1ccc(CN2CCOCC2)cc1 [free AUY922, AUY922] | cleared quite rapidly
